Where “and” joins values, the source holds several entries; their conditions need not be identical. Equal values may be shown once. ± gives the expanded uncertainty stated by the source.
Conditions: Liquid, Vibrating tube method

## CCCC[n+]1ccn(C)c1.O=S(=O)([N-]S(=O)(=O)C(F)(F)F)C(F)(F)F
273.15 K, 100 kPa
  mass density: 1460.67 ± 0.83 kg/m3
278.15 K, 100 kPa
  mass density: 1455.84 ± 0.83 kg/m3
283.15 K, 100 kPa
  mass density: 1451.04 ± 0.83 kg/m3
288.15 K, 100 kPa
  mass density: 1446.23 ± 0.82 kg/m3
288.15 K, 10320 kPa
  mass density: 1453.8 ± 3.1 kg/m3
288.15 K, 15130 kPa
  mass density: 1457.1 ± 3.1 kg/m3
288.15 K, 20090 kPa
  mass density: 1460.4 ± 3.1 kg/m3
288.15 K, 24820 kPa
  mass density: 1463.6 ± 3.2 kg/m3
288.15 K, 25120 kPa
  mass density: 1463.3 ± 3.2 kg/m3
288.15 K, 30620 kPa
  mass density: 1467.3 ± 3.2 kg/m3
288.15 K, 39770 kPa
  mass density: 1473 ± 3.3 kg/m3
288.15 K, 49640 kPa
  mass density: 1478.8 ± 3.3 kg/m3
288.15 K, 50970 kPa
  mass density: 1479.2 ± 3.3 kg/m3
288.15 K, 76000 kPa
  mass density: 1493.8 ± 3.6 kg/m3
288.15 K, 100500 kPa
  mass density: 1506 ± 3.9 kg/m3
288.15 K, 124500 kPa
  mass density: 1517.8 ± 4.2 kg/m3
288.15 K, 150400 kPa
  mass density: 1528.9 ± 4.6 kg/m3
288.15 K, 151000 kPa
  mass density: 1529.4 ± 4.6 kg/m3
288.15 K, 175100 kPa
  mass density: 1539.3 ± 5 kg/m3
288.15 K, 199900 kPa
  mass density: 1548.8 ± 5.4 kg/m3
288.16 K, 99600 kPa
  mass density: 1506 ± 3.8 kg/m3
293.15 K, 100 kPa
  mass density: 1441.43 ± 0.82 kg/m3 and 1441.42 ± 0.82 kg/m3
298.15 K, 100 kPa
  mass density: 1436.64 ± 0.82 kg/m3 and 1436.6 ± 0.82 kg/m3
298.15 K, 9760 kPa
  mass density: 1444.2 ± 3.1 kg/m3
298.15 K, 15200 kPa
  mass density: 1448.1 ± 3.1 kg/m3
298.15 K, 24770 kPa
  mass density: 1454.6 ± 3.2 kg/m3
298.15 K, 24930 kPa
  mass density: 1454.4 ± 3.2 kg/m3
298.15 K, 39560 kPa
  mass density: 1464.3 ± 3.2 kg/m3
298.15 K, 50280 kPa
  mass density: 1470.6 ± 3.3 kg/m3
298.15 K, 100700 kPa
  mass density: 1498.7 ± 3.8 kg/m3
298.15 K, 124500 kPa
  mass density: 1510.5 ± 4.2 kg/m3
298.15 K, 150300 kPa
  mass density: 1522.1 ± 4.6 kg/m3
298.15 K, 174400 kPa
  mass density: 1532.5 ± 5 kg/m3
298.15 K, 200400 kPa
  mass density: 1543.2 ± 5.4 kg/m3 and 1542.9 ± 5.4 kg/m3
298.15 K, 249600 kPa
  mass density: 1561.5 ± 6.4 kg/m3
298.16 K, 20120 kPa
  mass density: 1451.5 ± 3.1 kg/m3
298.16 K, 30400 kPa
  mass density: 1458.4 ± 3.2 kg/m3
298.16 K, 50110 kPa
  mass density: 1470.9 ± 3.3 kg/m3
298.16 K, 75200 kPa
  mass density: 1485.4 ± 3.6 kg/m3
298.16 K, 100200 kPa
  mass density: 1498.6 ± 3.9 kg/m3
298.16 K, 150100 kPa
  mass density: 1522.3 ± 4.6 kg/m3
298.16 K, 225500 kPa
  mass density: 1553 ± 5.9 kg/m3
303.15 K, 100 kPa
  mass density: 1431.86 ± 0.82 kg/m3
313.15 K, 100 kPa
  mass density: 1422.34 ± 0.81 kg/m3
323.15 K, 100 kPa
  mass density: 1412.87 ± 0.8 kg/m3 and 1412.85 ± 0.8 kg/m3
323.15 K, 15150 kPa
  mass density: 1424.4 ± 3.1 kg/m3
323.15 K, 24310 kPa
  mass density: 1431.5 ± 3.1 kg/m3
323.15 K, 24670 kPa
  mass density: 1431.2 ± 3.1 kg/m3
323.15 K, 30100 kPa
  mass density: 1435.1 ± 3.2 kg/m3
323.15 K, 39780 kPa
  mass density: 1441.8 ± 3.2 kg/m3
323.15 K, 49910 kPa
  mass density: 1448.4 ± 3.3 kg/m3
323.15 K, 50470 kPa
  mass density: 1449.4 ± 3.3 kg/m3
323.15 K, 75400 kPa
  mass density: 1463.9 ± 3.5 kg/m3
323.15 K, 99600 kPa
  mass density: 1478.1 ± 3.8 kg/m3
323.15 K, 100500 kPa
  mass density: 1478 ± 3.8 kg/m3
323.15 K, 124700 kPa
  mass density: 1490.3 ± 4.1 kg/m3
323.15 K, 149600 kPa
  mass density: 1502.1 ± 4.5 kg/m3 and 1502.8 ± 4.5 kg/m3
323.15 K, 174600 kPa
  mass density: 1513 ± 4.8 kg/m3
323.15 K, 200000 kPa
  mass density: 1524.7 ± 5.3 kg/m3
323.15 K, 225000 kPa
  mass density: 1533.7 ± 5.7 kg/m3
323.15 K, 251500 kPa
  mass density: 1543 ± 6.3 kg/m3
323.16 K, 10250 kPa
  mass density: 1420.7 ± 3.1 kg/m3
323.16 K, 20180 kPa
  mass density: 1428.1 ± 3.1 kg/m3
323.16 K, 201000 kPa
  mass density: 1524.3 ± 5.3 kg/m3
333.15 K, 100 kPa
  mass density: 1403.48 ± 0.8 kg/m3
343.15 K, 100 kPa
  mass density: 1394.15 ± 0.79 kg/m3
348.15 K, 10050 kPa
  mass density: 1397.8 ± 3.1 kg/m3
348.15 K, 15200 kPa
  mass density: 1402 ± 3.1 kg/m3
348.15 K, 20220 kPa
  mass density: 1405.9 ± 3.1 kg/m3
348.15 K, 24790 kPa
  mass density: 1410.4 ± 3.1 kg/m3
348.15 K, 24830 kPa
  mass density: 1409.3 ± 3.1 kg/m3
348.15 K, 30300 kPa
  mass density: 1413.4 ± 3.2 kg/m3
348.15 K, 39980 kPa
  mass density: 1420.5 ± 3.2 kg/m3
348.15 K, 49890 kPa
  mass density: 1427.3 ± 3.3 kg/m3
348.15 K, 50730 kPa
  mass density: 1429.7 ± 3.3 kg/m3
348.15 K, 75400 kPa
  mass density: 1443.5 ± 3.5 kg/m3
348.15 K, 100300 kPa
  mass density: 1460.9 ± 3.8 kg/m3
348.15 K, 100500 kPa
  mass density: 1458.5 ± 3.8 kg/m3
348.15 K, 125100 kPa
  mass density: 1471.9 ± 4 kg/m3
348.15 K, 150000 kPa
  mass density: 1484.2 ± 6.5 kg/m3
348.15 K, 150500 kPa
  mass density: 1487.2 ± 6.5 kg/m3
348.15 K, 174700 kPa
  mass density: 1495.6 ± 4.8 kg/m3
348.15 K, 199200 kPa
  mass density: 1509.2 ± 5.4 kg/m3
348.15 K, 200600 kPa
  mass density: 1506.6 ± 5.4 kg/m3
348.15 K, 225700 kPa
  mass density: 1517 ± 5.6 kg/m3
348.15 K, 250700 kPa
  mass density: 1526.9 ± 6.1 kg/m3
353.15 K, 100 kPa
  mass density: 1384.88 ± 0.79 kg/m3
363.15 K, 100 kPa
  mass density: 1375.67 ± 0.78 kg/m3

## CCCCCC[n+]1ccn(C)c1.O=S(=O)([N-]S(=O)(=O)C(F)(F)F)C(F)(F)F
273.15 K, 101.33 kPa
  mass density: 1395.63 ± 0.8 kg/m3 and 1395.14 ± 0.8 kg/m3 and 1395.28 ± 0.8 kg/m3
278.15 K, 101.33 kPa
  mass density: 1390.37 ± 0.79 kg/m3 and 1390.93 ± 0.79 kg/m3
283.15 K, 101.33 kPa
  mass density: 1385.72 ± 0.79 kg/m3 and 1385.89 ± 0.79 kg/m3 and 1386.23 ± 0.79 kg/m3
288.15 K, 101.33 kPa
  mass density: 1381.16 ± 0.79 kg/m3 and 1381.54 ± 0.79 kg/m3
288.15 K, 14950 kPa
  mass density: 1393.3 ± 3.1 kg/m3
288.15 K, 20180 kPa
  mass density: 1396.8 ± 3.1 kg/m3
288.15 K, 25080 kPa
  mass density: 1400 ± 3.1 kg/m3
288.15 K, 30100 kPa
  mass density: 1403.2 ± 3.1 kg/m3
288.15 K, 40120 kPa
  mass density: 1409.5 ± 3.2 kg/m3
288.15 K, 49940 kPa
  mass density: 1415.3 ± 3.3 kg/m3
288.15 K, 75500 kPa
  mass density: 1429.5 ± 3.5 kg/m3
288.15 K, 124700 kPa
  mass density: 1453.9 ± 4 kg/m3
288.15 K, 174600 kPa
  mass density: 1474.9 ± 4.6 kg/m3
288.16 K, 100000 kPa
  mass density: 1442.2 ± 3.7 kg/m3
288.16 K, 150500 kPa
  mass density: 1465 ± 4.3 kg/m3
293.15 K, 101.33 kPa
  mass density: 1376.86 ± 0.79 kg/m3 [middle of 4 runs]
298.15 K, 101.33 kPa
  mass density: 1372.17 ± 0.78 kg/m3 [middle of 4 runs]
303.15 K, 101.33 kPa
  mass density: 1367.48 ± 0.78 kg/m3 and 1367.61 ± 0.78 kg/m3
313.15 K, 101.33 kPa
  mass density: 1358.37 ± 0.78 kg/m3 and 1358.51 ± 0.78 kg/m3 and 1358.44 ± 0.78 kg/m3
323.15 K, 101.33 kPa
  mass density: 1349.3 ± 0.77 kg/m3 and 1349.43 ± 0.77 kg/m3 and 1349.35 ± 0.77 kg/m3
333.15 K, 101.33 kPa
  mass density: 1340.33 ± 0.77 kg/m3 and 1340.27 ± 0.77 kg/m3 and 1340.4 ± 0.77 kg/m3
343.15 K, 101.33 kPa
  mass density: 1331.36 ± 0.76 kg/m3 and 1331.29 ± 0.76 kg/m3 and 1331.38 ± 0.76 kg/m3
353.15 K, 101.33 kPa
  mass density: 1322.46 ± 0.76 kg/m3 and 1322.34 ± 0.76 kg/m3 and 1322.43 ± 0.76 kg/m3
363.15 K, 101.33 kPa
  mass density: 1313.62 ± 0.75 kg/m3 and 1313.44 ± 0.75 kg/m3 and 1313.52 ± 0.75 kg/m3

From the NIST ThermoML archive (doi:10.1021/je501118w)
